Measured values as given in patent publication US11576383B2, “Pesticide composition containing thidiazuron and polyglutamic acid” (JIANGSU HUIFENG BIO AGRICULTURE CO., LTD., priority 2017, dated 2023).

Experiments:
Type in all cases: in vivo
maize = test: Field comprehensive test of mixing thidiazuron and polyglutamic acid on growth regulation and production increase of maize; settings: 40 a.i. mg/kg
Experimental: (§1) Thidiazuron and polyglutamic acid were diluted with acetone according to a certain concentration and were sprayed to stems and leaves of crops, and influence of concentrations on growth of crops is assayed in the field, including comprehensive evaluation on plant height, spike number, setting percentage, disease-resistant condition, yield condition and the like of the crops. Plant height control rate=(plant height of a clean water control group-processed plant height)/plant height of the clean water control group*100% Spike number increase ratio=(processed plant spike number-plant spike number of a clean water control group)/plant spike number of the clean water control group*100% Setting percentage=filled grain number per spike/total grain number per spike*100% Prevention effect=(disease index of a clean water control group-processed disease index)/disease index of the clean water control group*100% Yield per mu increase ratio=(processed yield per mu-yield per mu of a clean water control group)/yield per mu of the clean water control group*100%
(§2) 1. Field Comprehensive Test of Mixing Thidiazuron and Polyglutamic Acid on Growth Regulation and Disease Resistance and Production Increase of Maize Crops
(§3) Sorghum variety: Suyu 23.
Pesticide application stage: a big horn stage of maize and a blooming stage of maize in which diseases such as Southern corn leaf blight are prone to occur.
Pesticide application number of times: 2 times, 6 days asan interval. The examples of the preparation of the present invention are sprayed for three repeated times, and the result is the mean value.

[1] = tested on: Southern corn leaf blight; test: Prevention of Southern corn leaf blight in the maize field comprehensive test; settings: 40 a.i. mg/kg
Experimental: as §1, §2, §3
Pesticide application stage: a big horn stage of maize and a blooming stage of maize in which diseases such as Southern corn leaf blight are prone to occur. […]

[2] = tested on: banded sclerotial blight of indica; test: Disease control of banded sclerotial blight in the indica comprehensive assay; settings: 50 a.i. mg/kg
Experimental: (§4) 1. Comprehensive Assay Test of Compounding Thidiazuron and Polyglutamic Acid on Growth Regulation of Indica
as §1

indica = test: Comprehensive assay of compounding thidiazuron and polyglutamic acid on growth regulation of indica (field, stem and leaf spraying); settings: 50 a.i. mg/kg
Experimental: as §4, §1

SMILES: O=C(Nc1ccccc1)Nc1cnns1 [Thidiazuron]
- Stem Diameter (maize): 2.50 cm
- Thousand seed weight (maize): 249.0 g
- Plant Height (maize; applied 2 times, 6 days interval, mean of three repeats): 129.0 cm
- Control Rate (plant height) (maize; vs clean water control group): 5.4%
- Increase Ratio (output, unit yield per mu) (maize; vs clean water control group): 6.1%
- Increase Ratio (stem diameter) (maize; vs clean water control group): 5.4%
- Increase Ratio (thousand seed weight) (maize; vs clean water control group): 5.4%
- Output (maize; yield per mu): 637.9 667M^2
- Southern corn leaf blight ([1]; disease index): 14.74
- Prevention Effect ([1]; Southern corn leaf blight, vs clean water control group): 51.11%
- Prevention Effect ([2]; banded sclerotial blight of indica, vs clean water control group): 49.8%
- Disease Index of Banded Sclerotial Blight ([2]; indica): 14.8
- Spike Number of Single Plant (indica): 18.1 grains
- Total Grain Number of Spike (indica): 145.7 grains
- filled grain number per spike (indica): 132.2 grains
- Setting Percentage (indica; filled grain number per spike/total grain number per spike): 90.7%
- Plant Height (indica; stem and leaf spraying 2 times, 8 days interval, investigated at later grouting stage): 121.2 cm
- Plant Height Control Rate (indica; vs clean water control group): 5.0%
- Production Increase Ratio (yield per mu increase ratio) (indica; vs clean water control group): 5.5%
- Spike Number Increase Ratio (indica; vs clean water control group): 4.0%
- Output (indica; yield per mu): 537.5 667 M^2
